Experimental data as given in patent US20130131065A1, “TREATMENT OF TYPE 2 DIABETES” (priority 2010, published 2013).

Test system: Rat pancreatic islets
Assay: Apoptosis (cytoplasmic nucleosomes, Cell Death Detection ELISA) in cultured rat pancreatic islets with or without cytokine cocktail
Format: cell-based
Protocol: Male Wistar rat islets (Elevage Janvier, Le Genest-St-Isle, France) were isolated using collagenase (Serva, Heidelberg, Germany) and cultured in RPMI at 11 mM glucose (Invitrogen, CA, USA) supplemented with 10% FCS (Fetal Calf Serum), 100 Units/ml penicillin, 100 μg/ml streptomycin and 100 μg/ml gentamycin in low-attachment 24-well plates (Corning, N.Y., USA). These islets were incubated with a cocktail of rat cytokines (TNF-alpha, IL-1beta and INF-gamma each at 2 ng/ml) for 24 hours (Brun T. et al., 2004 and 2007). […] Aliquots of the medium were used to measure insulin accumulated during the culture period using immune enzyme assay kits (Brunchwig, Basel, Switzerland). Furthermore, quantification of cytoplasmic nucleosomes, a direct indicator of apoptosis, was performed with the Cell Death Detection ELISA kit (Roche, Basel, Switzerland). Each condition was tested with 50 rat islets in duplicate and four independent experiments were performed. The results are provided as mean+/−sem and statistical analyses were performed using one-way ANOVA with Bonferroni and Dunnett post-hoc tests.
The conditions without cytokines allowed the analysis of the specific effect of the compound on islets while the combination of the drug with cytokines allowed the study of the effect of Imeglimin on islets under an inflammatory stress. To measure cell death in islets, quantification of cytoplasmic nucleosomes in islet cells, a consequence of DNA fragmentation during apoptosis (Robertson et al., 2000), was performed. […] Furthermore, a negative control and a positive control were added to the conditions with and without cytokines to test the effectiveness of the protocol. […] The results of the quantification of cell death for each condition are presented on FIG. 1.

[1] = with cytokines (TNF-alpha, IL-1beta, INF-gamma each 2 ng/ml, 24 hours), compound at 100 μM
[2] = with cytokines (each 2 ng/ml, 24 hours), compound at 1 mM
[3] = with cytokines (each 2 ng/ml, 24 hours), Exendin-4 at 10 nM

| Compound | protection of the islets from the cytokine stress (both doses (100 μM and 1 mM), cytokines each 2 ng/ml, 24 hours) | less apoptosis than cytokine-stressed islets [1] [%] | less apoptosis than untreated islets [1] [%] | protection: less apoptosis than cytokine-stressed islets [2] [%] | protection: less apoptosis than untreated islets [2] [%] | more potent than Exendin-4 (protective effect) (with cytokines, lower concentration tested (100 μM) vs Exendin-4 at 10 nM) [%] | level of protection relative to the Exendin-4 level (without cytokines, compound at 100 μM vs Exendin-4 at 10 nM) | less apoptosis than untreated islets (without cytokines, compound at 100 μM, 24 hours) [%] | drop in apoptosis vs cytokine-stressed islets [3] [%] | drop in apoptosis vs untreated islets [3] [%] | decrease in cell death (vs untreated islets) (without cytokines, Exendin-4 at 10 nM, 24 hours) [%] |
| --- | --- | --- | --- | --- | --- | --- | --- | --- | --- | --- | --- |
| CC1N=C(N)NC(N(C)C)=N1.Cl (single isomer, unassigned; (+)) [(+)-2-amino-3,6-dihydro-4-dimethylamino-6-methyl-1,3,5-triazine hydrochloride] | completely protected | 37 | 29 | 25 | 16 | ~50 | two thirds | 10 |  |  |  |
| Exendin-4 [reference compound] |  |  |  |  |  |  |  |  | 29 | 20 | 16 |
